# Assay results as given in patent US20230349922A1, “H2 Blockers Targeting Liver Macrophages for the Prevention and Treatment of Liver Disease and Cancer” (Université de Strasbourg, priority 2020, published 2023).
# Assays:
# [1] = test system: prognostic liver signature (PLS); test: cPLS model: reversal of the prognostic liver signature in HCV-infected Huh7.5.1dif cells; assay type: cell-based, human; conditions: Huh7.5.1dif cells infected with HCV Jc1 for 7 days, treated 3 additional days; GSEA
# intracellular cAMP = test: Intracellular cAMP level by ELISA in HCV-infected Huh7.5.1dif cells; assay type: cell-based, human; conditions: increase following induction of the poor-prognosis PLS (HCV Jc1 5 days), nizatidine 3 more days
# Experimental: ELISA Assay. To assess the HCV infection and nizatidine treatment on intracellular cAMP level, Huh7.5.1^dif cells were infected with HCV Jc1 for 5 days and were incubated for 3 more days with nizatidine or DMSO as a control. The cAMP level was measured by ELISA assay using the cAMP Parameter Assay Kit (R&D System) according to manufacturer's instructions.
# liver macrophages = test: scRNA-Seq of CD45+ leucocytes from patient liver tissue treated with nizatidine; assay type: cell-based, human
# Experimental: Single-Cell RNA-Seq Analyses of Patient Liver Tissues. Human cells were dissociated from HCC patient liver tissues. Fresh or cryopreserved tissues were minced into 2 to 3 mm pieces and incubated with collagenase (0.5 mg/mL) for 30 minutes at 37° C. Digested tissues were filtered through a sterile nylon mesh to separate the dispersed cells from tissue fragments and washed with Hanks' Balanced Salt Solution (HBSS). Cells were then centrifuged at 600×g for 5 minutes at 4° C. Leucocytes CD45^+ cells were separated from other cell types by flow cytometry using SH800 cell sorter (Sony). Briefly, 500,000 cells per condition were stained with human CD45 specific antibody. Living cells were selected using Zombie green staining according to manufacturer's instructions. Data were acquired using the Sony Cell Sorter Software. Cells were then cultured in MammoCultTM medium and treated with nizatidine 50 μM or DMSO vehicle control. Two days after treatment, single cells were sorted into 384 well cell capture plates (Single Cell Discovery, website: www.scdiscoveries.com) using SH800 cell sorter (Sony). The plates contain mineral oil and droplets of poly-A primers, containing a cell-specific barcode and a unique molecular identifier (UMI), enabling to distinguish the well-specific (and cell-specific) mRNA molecules. scRNA-Seq was performed by Single-Cell Discoveries B.V. using SORT-seq protocol (Muraro et al., Pancreas Cell Syst., 2016, 3: 385-394, e3). Single Cell RNA-Seq Profiling of Human Cells. scRNA-Seq analysis of patient-derived liver tissue was assessed using R version 3.5.3 with package “[…]” for clusterization, cluster analysis and DEG calculation, as previously described (Aizarani et al., Nature; 2019, 572: 199-204).
# [2] = test system: patient-derived Kupffer cells; test: Cytokine expression by qRT-PCR in M1 differentiated patient-derived Kupffer cells; assay type: cell-based, human; conditions: Kupffer cells isolated from patient tissues, LPS + IFNγ, nizatidine 30 μM 48 hours
# Experimental: Real-Time qRT-PCR. cDNAs were synthetized by reverse transcription using SuperScript III First-Strand Synthesis SuperMix (Life Technologies). Expression of […] IL6, TNFα and IL1β was analyzed by quantitative real-time PCR using TaqMan Gene Expression Assays (Thermo Fisher Scientific) on the CFX96 Touch Real-Time PCR Detection System PCR system (Bio-Rad). Expression of human CCL2 and TGF was analyzed using iTaq™ Universal SYBR® Green Supermix (Bio-Rad). The 2^−ΔCT method was used for relative quantification (Schmittgen and Livak, Nature Protoc., 2008, 3: 1101-1108) of mRNA with normalization to 18S. The 2^−ΔCT method was used for relative quantification (Schmittgen and Livak, Nature Protoc., 2008, 3: 1101-1108) of mRNA with normalization to GAPDH mRNA. Isolation and Treatment of Patient-Derived Kupffer Cells. Kupffer cells were isolated as previously described (Kegel et al., J. Vis. Exp., 2016, 109: e53069) from liver tissue of patients without history of chronic liver disease. Briefly, the non-parenchymal cell populations (NPCs) were purified by serial centrifugation followed by separation of Kupffer cells, exploiting fast attachment of primary macrophages to plastic within 20 minutes. Cells were cultured in RPMI 1640 Medium with GlutaMAX™-I supplement and HEPES and supplemented with 10% FBS and gentamycin (0.05 mg/mL). […]
# [3] = test system: patient-derived HCC tumor spheroids; test: Cell viability (ATP, CellTiter-Glo) of patient-derived HCC tumorspheroids; assay type: cell-based, human; conditions: nizatidine 50 μM, 4 days, ATP levels, compared to DMSO; 6 patients
# Experimental: Patient-Derived HCC Tumor Spheroids. Tumorspheroids were generated from liver tissues from HCC patients undergoing surgical resection and dissociated using the Human Tumor Dissociation Kit. Total cell populations including epithelical (i.e., cancer cells/hepatocytes) and NPCs were used to generate multicellular tumorspheroids in Corning® 96-well Black/Clear Bottom Low Flange Ultra-Low Attachment Microplates (Corning). After 48 hours, HCC-derived spheroids were treated with nizatidine 50 μM, sorafenib 10 μM or DMSO vehicle control for 4 days. Fresh medium containing DMSO or drugs was added every day. Cell viability was assessed using CellTiter-Glo® (Luminescent Cell Viability Assay), according to manufacturer's instruction.
# [4] = patients, after a 300 mg oral dose; cited from earlier work
# [5] = GSEA, nizatidine-treated vs CTRL macrophages
# [6] = gene-level analysis in macrophages
# [7] = nizatidine 50 μM, two days, scRNA-Seq
compound,measurement,setting,value
"CNC(=C[N+](=O)[O-])NCCSCc1csc(CN(C)C)n1 [Nizatidine, N-[2-[[[2-[(dimethylamino)methyl]-4-thizaolyl]methyl]thio]ethyl]-N′-methyl-2-nitro-1,1-ethene-diamine]",reversal of the poor prognosis status of the prognostic liver signature (PLS),[1],PLS-reversing compounds with highest statistical significance
same,intracellular cAMP level,intracellular cAMP,reverted
same,IFNγ response and antigen processing and presentation,liver macrophages; [5],augmenting IFNγ response and antigen processing and presentation
same,c-Myc pathway expression,liver macrophages; [5],strong suppression of the c-Myc pathway expression
same,immunoregulatory macrophage (M2) signature,liver macrophages; [5],only partially induces the immunoregulatory macrophage (M2) signature
same,"pro-inflammatory and pro-fibrogenic responses (TNFα, IL2 and IL6 signaling pathways)",liver macrophages; [5],suppresses pro-inflammatory and pro-fibrogenic responses
same,pro-inflammatory macrophage (M1) signature,liver macrophages; [5],suppresses the pro-inflammatory macrophage (M1) signature
same,major histocompatibility complex (MHC) molecules expression,liver macrophages; [6],increase in major histocompatibility complex (MHC) molecules expression
same,"neutrophil/monocyte chemoattractant and pro-inflammatory cytokine expression (CXCL5, CCL2, CCL5)",liver macrophages; [6],decrease in neutrophil/monocyte chemoattractant and pro-inflammatory cytokine expression
same,"pro-fibrotic/tumorigenic soluble factor expression (IL6, IL1b, PDGF, MMP9, TNFα)",liver macrophages; [6],suppression of pro-fibrotic/tumorigenic soluble factor expression
same,Siglec-10 expression in macrophages,liver macrophages; [7],decreases expression
same,macrophage CLEC5A expression,liver macrophages; [7],decreased macrophage CLEC5A expression
same,pro-inflammatory cytokine expression,[2],direct effect
same,tumor spheroid viability,[3],significant decrease of tumor spheroid viability in 4 out of 6 patients
same,plasma concentrations,[4],2000 to 4000 nM
